For assay [1], the target named is Neuronal acetylcholine receptor subunit alpha-7 (Homo sapiens) (UniProt P36544). The experiment in a line: Agonist activity at human alpha7 nAChR expressed in xenopus oocytes assessed as potentiation of PNU-120596-induced PAM-sensitive desensitization at 30 uM by two-electrode voltage clamp electrophysiology relative to acetylcholine. It is filed as cell-based. For orientation: Two-electrode voltage clamp holds a large cell at a set potential and records current.

For assay [2], the target named is T1, Neuronal acetylcholine receptor; alpha3/beta4 (Homo sapiens) (UniProt P30926+P32297). The experiment in a line: Partial agonist activity at human alpha3beta4 nAChR expressed in xenopus oocytes assessed as induction of PAM-sensitive desensitization at 30 uM by two-electrode voltage clamp electrophysiology relative to acetylcholine. It is filed as cell-based.

Assay [3] has as its target Neuronal acetylcholine receptor subunit alpha-7 (Homo sapiens) (UniProt P36544). Briefly: Agonist activity at human alpha7 nAChR expressed in xenopus oocytes assessed as induction of PAM-sensitive desensitization at 30 uM by two-electrode voltage clamp electrophysiology relative to acetylcholine. The format is cell-based.
The target is the same in assay [4]. Briefly: Partial agonist activity at human alpha7 nAChR expressed in xenopus oocytes assessed as induction of PAM-sensitive desensitization at 30 uM by two-electrode voltage clamp electrophysiology relative to acetylcholine. It is filed as cell-based.
The target is the same in assay [5]. The experiment in a line: Partial agonist activity at human alpha7 nAChR expressed in xenopus oocytes assessed as induction of PAM-sensitive desensitization by measuring ratio of peak current to net charge at 30 uM by two-electrode voltage clamp electrophysiology relative to acetylcholine. The format is cell-based.
For assay [6] the target is unchanged. The experiment in a line: Partial agonist activity at human alpha7 nAChR expressed in xenopus oocytes assessed as potentiation of PNU-120596-induced PAM-sensitive desensitization at 30 uM by two-electrode voltage clamp electrophysiology relative to acetylcholine. It is filed as cell-based.
Assay [7] addresses T2, Neuronal acetylcholine receptor; alpha4/beta2 (Homo sapiens) (UniProt P17787+P43681). The experiment in a line: Partial agonist activity at alpha4beta2 nAChR (unknown origin) at 100 uM. The format is protein-complex assay.
The target in assay [8] is T2, Neuronal acetylcholine receptor; alpha4/beta2 (Homo sapiens). Briefly: Antagonist activity at alpha4beta2 nAChR (unknown origin) at 100 uM. The format is protein-complex assay.
For assay [9], the target named is T1, Neuronal acetylcholine receptor; alpha3/beta4 (Homo sapiens). The experiment in a line: Antagonist activity at human alpha3beta4 nAChR expressed in xenopus oocytes at 100 uM by two-electrode voltage clamp electrophysiology. The format is cell-based.

The structures appear in SMILES notation. Active and inactive are the calls of the source. The calls are words filed in the database; no cut-off is given here.

Sequence of Neuronal acetylcholine receptor subunit alpha-7 (Homo sapiens) (P36544 whole entry): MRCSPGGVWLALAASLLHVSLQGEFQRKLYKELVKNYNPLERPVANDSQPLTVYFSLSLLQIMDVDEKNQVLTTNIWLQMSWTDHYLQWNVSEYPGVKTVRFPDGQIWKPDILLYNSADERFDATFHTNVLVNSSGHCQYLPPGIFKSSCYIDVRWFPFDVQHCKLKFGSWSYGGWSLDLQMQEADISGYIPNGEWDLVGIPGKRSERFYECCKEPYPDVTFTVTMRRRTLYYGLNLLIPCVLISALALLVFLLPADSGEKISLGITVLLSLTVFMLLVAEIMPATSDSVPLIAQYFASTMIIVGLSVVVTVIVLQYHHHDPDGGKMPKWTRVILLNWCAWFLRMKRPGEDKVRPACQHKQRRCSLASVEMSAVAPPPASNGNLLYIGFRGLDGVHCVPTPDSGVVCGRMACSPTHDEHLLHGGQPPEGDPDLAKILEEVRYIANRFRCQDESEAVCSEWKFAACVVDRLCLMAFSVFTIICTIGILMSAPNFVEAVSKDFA

Consider `CCN1CCN(c2ccc(F)cc2)CC1`, for which, in assay [1], the Activity is under 10% and the fold change (FC) was 0. Also, in assay [2], the outcome was inactive. Further, the fold change (FC) in [3] is 0.
On to `CC[N+]1(CC)CCC(Nc2ccccc2)CC1`, for which, in [1], the Activity is under 10% and the fold change (FC) was found to be 5.6. Also, the outcome in [2] was inactive. The fold change (FC) in assay [3] worked out at 0.002.
With `CC[N+]1(CC)CCN(c2ccccc2C)CC1`, in [4], the fold change (FC) was found to be 0.319. In addition, the Ratio in assay [5] is 0.46. Also, in assay [6], the Activity was under 10% and the fold change (FC) is 16.4.
In the case of `CC[N+]1(CC)CCN(c2ccc(OC)cc2)CC1`, in assay [1], the Activity is under 10% and the fold change (FC) was found to be 11.6. Also, the result in assay [2] was inactive. Also, the fold change (FC) in assay [3] came out at 0.063.
Taken in the same sequence, the figures for `CCN1CCN(c2cccc(Br)c2)CC1` were under 10%, 6.9, “inactive” and 0.
In the case of `CC[N+]1(CC)CCN(c2cccc(O)c2)CC1`, in assay [4], the fold change (FC) is 0.283. Also, the Ratio in assay [5] was found to be 0.67. For the same molecule, in assay [6], the Activity was under 10% and the fold change (FC) came out at 31.4.
On the same counts, the results for `CC[N+]1(CC)CCN(c2ccc(Cl)cc2)CC1` are 0.234, 0.71, under 10% and 18.3.
For the molecule `CCN1CCN(c2ccc(C(F)(F)F)cc2)CC1`, the Activity in assay [1] is under 10%. For the same molecule, the fold change (FC) in [1] is 1.4; in [3] it was 0. Moreover, the outcome in assay [2] was inactive.
Take `CC[N+]1(CC)CCN(c2cccc(C)c2)CC1`: in assay [1], the Activity is under 10% and the fold change (FC) stood at 0.2. In [2], the outcome was inactive. In addition, the fold change (FC) in [3] is 0.001.
As to `CC[N+]1(CC)CCN(c2ccc(Br)cc2)CC1`, in assay [1], the Activity was under 10% and the fold change (FC) stood at 12.3. In assay [3], the fold change (FC) worked out at 0.27.
On to `CC[N+]1(CC)CCN(c2cccc(C#N)c2)CC1`, for which, in [1], the Activity was under 10%. Also, the fold change (FC) turned out to be 1.5 in assay [1] and 0.022 in assay [3]. The result in [2] was inactive.
On the same counts, the results for `CC[N+]1(CC)CCN(c2cccc(F)c2)CC1` are under 10%, 0.2, 0.061 and “inactive”.
On the same counts, the results for `CC[N+]1(CC)CCN(c2ccc(C)cc2)CC1` are under 10%, 3.6, 0.011 and “inactive”.
`CC[N+]1(CC)CCN(c2ccc(C(N)=O)cc2)CC1`: the Activity in [1] is under 10%. Also, the values for the fold change (FC) in [1] and in assay [3] were 43.9 and 0.065, respectively. For the same molecule, the result in [2] was inactive.
In the case of `CC[N+]1(CC)CCN(c2ccc(OC)cc2OC)CC1`, in assay [1], the Activity was under 10% and the fold change (FC) was 1.1. Further, the fold change (FC) in assay [3] stood at 0.014.
Turning to `CC[N+]1(CC)CCN(c2ccccc2)CC1`, in [1], the Activity was under 10% and the fold change (FC) was 1.3. Further, in assay [3], the fold change (FC) stood at 0.002.
Consider `CC[N+]1(CC)CCN(c2cccc(Br)c2)CC1`, for which, in assay [1], the Activity is under 10%. Further, the values for the fold change (FC) in [1] and in [3] were 10 and 0.04, respectively. Besides, the result in [2], in [7] and in [8] was inactive.
On to `CC[N+]1(CC)CCN(c2cccc(Cl)c2)CC1`, for which, in assay [1], the Activity was under 10%. In addition, the fold change (FC) in assay [1] was determined as 4.2; in [3], 0.02. Further, in assay [2], the result was inactive.
Turning to `CC[N+]1(CC)CCN(c2cccc(C(F)(F)F)c2)CC1`, in assay [1], the Activity was under 10% and the fold change (FC) was found to be 3.1. For the same molecule, the outcome in assay [2] was inactive. Besides, the fold change (FC) in [3] is 0.
`CC[N+]1(CC)CCN(c2ccc3ccccc3c2)CC1`: in assay [4], the fold change (FC) is 0.143. For the same molecule, the Ratio in assay [5] was 0.71. For the same molecule, in [6], the Activity is under 10% and the fold change (FC) was determined as 15.9.
Take `CC[N+]1(CC)CCN(c2ccccc2Cl)CC1`: the fold change (FC) in assay [4] turned out to be 0.367. The Ratio in [5] was 0.63. In assay [6], the Activity is under 10% and the fold change (FC) came out at 36.6.
As for `CC[N+]1(CC)CCN(c2cccc(OC)c2)CC1`, in [1], the Activity is under 10% and the fold change (FC) is 0.6. Moreover, the outcome in [2] was inactive. Further, the fold change (FC) in [3] was determined as 0.011. For the same molecule, in [9], the outcome was Active.
For the molecule `CC[N+]1(CC)CCC(=Cc2ccccc2)CC1`, the Activity in assay [1] was under 10%. The fold change (FC) in assay [1] worked out at 9.9; in assay [3], 0.071. Moreover, the outcome in [2] was inactive.
Taken in the same sequence, the figures for `CC[N+]1(CC)CCN(c2ccc(F)cc2)CC1` were under 10%, 22.9, 0.01 and “inactive”.
As for `CCN1CCN(c2cccc(Cl)c2)CC1`, in assay [1], the Activity is under 10% and the fold change (FC) was found to be 0.1. In addition, the outcome in [2] was inactive. Besides, in assay [3], the fold change (FC) amounted to 0.009.
Regarding `CC[N+]1(CC)CCN(c2cccc(C(N)=O)c2)CC1`, in assay [1], the Activity is under 10% and the fold change (FC) was 50.7. For the same molecule, in [2], the result was inactive. Also, the fold change (FC) in [3] came out at 0.056.
Turning to `CC[N+]1(CC)CCN(c2ccc(C#N)cc2)CC1`, in assay [4], the fold change (FC) was determined as 0.234. Also, the Ratio in [5] turned out to be 0.43. Further, in assay [6], the Activity was under 10% and the fold change (FC) is 68.
For the molecule `CC[N+]1(CC)CCN(c2ccc(C(F)(F)F)cc2)CC1`, in assay [1], the Activity was under 10%. The fold change (FC) in [1] amounted to 61.8; in [3] it was 0.032. For the same molecule, the outcome in [2], in assay [7] and in assay [8] was inactive.

These data come from ChEMBL document CHEMBL3745606, “Dissection of N,N-diethyl-N'-phenylpiperazines as α7 nicotinic receptor silent agonists” (Bioorg Med Chem, 2016).
